Assay results from patent publication US4157392A, “Pharmacologically active substituted 1,2,4-triazines” (Diamond Shamrock Corporation, priority 1978, dated 1979).
Where two headings read alike, the source gives them in different places.

Tests used:
[1] = tested on: carrageenin-induced edema in the hind paw of a rat; test: Carrageenin Assay (carrageenin-induced edema, hind paw); format: in vivo, rat (male, Long Evans strain); details: Rattus norvegicus, 1 h before carrageenin, edema at 3 h, compared to phenylbutazone control values, read-out: % Reduction of Edema; for inhibition in vivo at 200 mg/kg: 200 mg/kg oral
Description: The procedure employed is a modification of the method of Winter et al, Proc. Soc. Exptl. Biol. Med. 111:544 (1962). The device used for measurement of the paw volume is an adaptation of the water displacement procedure described by Adamkiewicz et al, Can. J. Biochem. Physiol. 33:332 (1955). Test compounds were administered orally, one hour prior to the intraplantar injection of 0.05 ml. of sterile 1.0 percent solution of carrageenin into the left hind paw of male rats (Long Evans strain) weighing between about 130-200 grams. At peak swelling time (3 hours) the volume of edema was calculated by differential paw volumes.
Table I sets forth the results obtained (indicated as percent reduction of edema compared to phenylbutazone control values) at the indicated dosages for each of the identified compounds.

[2] = tested on: central nervous system activity in mice; test: Neuropharmacological Profile; format: in vivo, mouse (white male Carworth Farm Strain CF-1)
Description: The central nervous system activity of certain of the preferred compounds in accordance with the present invention were determined using the following neuropharmacological profile assay procedures.
White male mice of the Carworth Farm Strain (CF-1) weighing 18-22 grams were used in these determinations. […] Intraperitoneal injections were administered in logarithmic progression and sequentially. The dose levels employed routinely are 10, 30, 100, and 300 mg/kg, using four male mice at each dose level. Since this test was conducted in a sequential manner, the first dose administered was at 300 mg/kg. The mice were injected at this dose level and observed for gross changes produced by the drug, such as behavioral, neurological, autonomic, and toxic effects.
The animals were observed continuously for one hour and if no signs of pharmacological or toxicological activity were present at the end of the first hour, they were intermittently checked for activity every fifteen minutes thereafter for two consecutive hours. […] Subsequent dose levels below 300 mg/kg were not administered in this case. Alternatively, if demonstrable pharmacological changes occurred within the first three hours after administration of the drug at 300 mg/kg, the subsequent doses were administered and the animals observed for changes in overt behavior. The observation period begins immediately following the injection and the animals are then continuously observed for three hours and intermittently checked thereafter for forty-eight hours. The animals were observed and signs and symptoms of pharmacological activity were recorded continuously until no further symptoms developed and until the symptoms that had appeared were no longer present. […] It was very important that the animals were free to move about for evaluation of spacial orientation, alertness, and spontaneous motor activity. The animals were systematically observed and manipulated to measure the onset, peak effect, duration and character of drug action.
The major characteristics observed relative to central nervous system activity for the compounds indicated are summarized in the following Table IV.

[3] = tested on: phenylquinone writhing in mice; test: Phenylquinone Writhing Assay (analgesia); format: in vivo, mouse (Carworth CF1 male mice); details: Mus musculus, po, read-out: Phenylquinone Writhing Assay (% Control), percent analgesia; for responders at 100 mg/kg: 100 mg/kg oral; for responders at 30 mg/kg: 30 mg/kg oral; for responders at 50 mg/kg: 50 mg/kg oral; for responders at 25 mg/kg: 25 mg/kg oral
Description: The phenylquinone writhing test was employed to evaluate analgesic activity according to the following procedure:
Phenylquinone (phenyl-p-benzoquinone, No. 7104, Eastman Organic Chemicals) is made up as a 0.02% aqueous solution in 5% ethyl alcohol. Phenylquinone solutions are made up fresh twice daily. Standard reference agents and the test compounds are dissolved or suspended in a 0.25% methylcellulose solution. A control group consisting of ten mice (Carworth CF1 male mice) are administered the 0.02% phenylquinone solution at a dose of 0.25 ml/mouse. The mice are housed individually and observed closely for ten minutes for exhibition of writhing. The onset of writhing occurs within three minutes and 100% of the mice must writhe within ten minutes. Test compounds are administered orally to groups of ten mice. The volume given is 0.01 ml/gram of body weight. Activity can be studied at 15, 30, 60, and 120 minutes after oral administration. After the designated time interval of a dose group has elapsed, the mice are challenged with phenylquinone intraperitoneally. Complete blocking of the writhing syndrom for the ten minute observation period in any one mouse is considered a positive analgesic response for that mouse. Conversely, if any mouse writhes definitely once it is considered not to be protected. The number of mice not writhing in group multiplied by ten equals percent analgesia for that dose at that time interval.

[4] = 300,100,30 mg/kg intraperitoneal

| SMILES | inhibition in vivo at 200 mg/kg [1] [%] | responders at 100 mg/kg ([3]; 0.5 h, 30 Min.) [%] | responders at 100 mg/kg ([3]; 0.25 h, 15 Min.) [%] | responders at 100 mg/kg ([3]; 1 h, 60 Min) [%] | other results |
| --- | --- | --- | --- | --- | --- |
| C=CCOc1nnc(C)c(C)n1 [Example 11, 3-allyloxy-5,6-dimethyl-1,2,4-triazine] | 63 | 30 |  |  | CNS Activity ([2]; 300,100 mg/kg intraperitoneal): Hypnotic |
| CSc1nncc(-c2cccc(C(F)(F)F)c2)n1 [Example 19, 3-methylthio-5-(3'-trifluoromethylphenyl)-1,2,4-triazine] | 51 |  |  |  | CNS Activity ([2]; 300,100,30,10,3 mg/kg intraperitoneal): Sedative; responders at 30 mg/kg ([3]; 0.5 h, 30 Min.): 20% |
| OCCNc1nncc(-c2ccccc2)n1 [Example 28, 3-B-hydroxyethyl amino-5-phenyl-1,2,4-triazine] | 43 | 10 | 30 | 10 |  |
| COc1nncc(-c2cccc3ccccc23)n1 [Example 29, 3-methoxy-5-(1'-naphthyl)-1,2,4-triazine] | 22 |  | 10 |  | responders at 30 mg/kg ([3]; 0.25 h, 15 Min.): 10%; responders at 50 mg/kg ([3]; 0.5 h, 30 Min.): 10% |
| CCCOc1nncc(-c2ccccc2)n1 [Example 31, 3-n-propoxy-5-phenyl-1,2,4-triazine] | 51 |  | 10 |  |  |
| COc1cc(-c2cnnc(SC)n2)ccc1O [Example 32, 3-methylthio-5-(3'-methoxy-4'-hydroxyphenyl)-1,2,4-triazine] | 5 | 10 | 30 | 10 |  |
| CSc1nncc(C23CC4CC(CC(C4)C2)C3)n1 [Example 34, 3-methylthio-5-(1'-adamantyl)-1,2,4-triazine] | 17 | 10 | 30 |  |  |
| CSc1nncc(-c2cc3ccccc3o2)n1 [Example 35, 3-methylthio-5-(2'-benzofuryl)-1,2,4-triazine] | 2 | 10 | 10 | 10 |  |
| CSc1nncc(C2CC2)n1 [Example 37, 3-methylthio-5-cyclopropyl-1,2,4-triazine] | 86 |  | 20 |  |  |
| COc1nncc(-c2ccc(OC)c(OC)c2)n1 [Example 38, 3-methoxy-5-(3',4'-dimethoxyphenyl)-1,2,4-triazine] | 52 | 20 |  | 10 |  |
| CSc1nncc(-c2c(C)cc(C)cc2C)n1 [Example 39, 3-methylthio-5-(2',4',6'-trimethylphenyl)-1,2,4-triazine] | 7 |  | 10 | 10 |  |
| CSc1nncc(-c2ccc(N3CCOCC3)cc2)n1 [Example 40, 3-methylthio-5-(4'-morpholinophenyl)-1,2,4-triazine] | 19 | 10 | 30 |  |  |
| CSc1nncc(-c2ccc(F)cc2F)n1 [Example 42, 3-methylthio-5-(2',4'-difluorophenyl)-1,2,4-triazine] |  | 10 | 20 |  | inhibition in vivo at 150 mg/kg ([1]; 150 mg/kg oral): 10% |
| CSc1nncc(-c2ccc(Br)cc2)n1 [Example 43, 3-methylthio-5-(4'-bromophenyl)-1,2,4-triazine] | 20 | 10 | 10 | 10 |  |
| COc1ccc(-c2cnnc(SC)n2)cc1 [Example 44, 3-methylthio-5-(4'-methoxyphenyl)-1,2,4-triazine] | 18 | 10 | 10 | 20 |  |
| COc1nnc(-c2ccccc2)c(-c2ccccc2)n1 [Example 48, 3-methoxy-5,6-diphenyl-1,2,4-triazine] | 17 |  |  |  | CNS Activity [2, 4]: Muscle Relaxant |
| COc1ccc(-c2nnc(N(C)CCO)nc2-c2ccc(OC)cc2)cc1 [Example 50, 3-(N-methyl-N-(B-hydroxyethyl)amino)-5,6-bis-(4'-methoxyphenyl)-1,2,4-triazine] | 67 | 100 | 70 | 80 | responders at 25 mg/kg ([3]; 0.25 h, 15 Min.): 30%; responders at 50 mg/kg ([3]; 0.25 h, 15 Min.): 60%; responders at 25 mg/kg ([3]; 0.5 h, 30 Min.): 40%; responders at 50 mg/kg ([3]; 0.5 h, 30 Min.): 50%; responders at 25 mg/kg ([3]; 1 h, 60 Min): 20%; responders at 50 mg/kg ([3]; 1 h, 60 Min): 40% |
| C[C@@H]1CC[C@H](C)N1c1nnc(-c2ccccc2)c(-c2ccccc2)n1 [Example 52, 3-(cis-2',5'-dimethylpyrrolidyl)-5,6-diphenyl-1,2,4-triazine] | 22 | 30 |  | 10 |  |
| c1ccc(Oc2nnc(-c3ccccc3)c(-c3ccccc3)n2)cc1 [Example 53, 3-phenoxy-5,6-diphenyl-1,2,4-triazine] | 7 |  | 20 | 10 |  |
| CSc1nnc(-c2ccc(Cl)cc2)c(-c2ccc(Cl)cc2)n1 [Example 54, 3-methylthio-5,6-bis(4'-chlorophenyl)-1,2,4-triazine] | 7 |  | 10 |  |  |
| CN(CCO)c1nnc(-c2ccccc2)c(-c2ccccc2)n1 [Example 55, 3-(N-methyl-N-B-hydroxyethylamino)-5,6-diphenyl-1,2,4-triazine] | 23 |  | 20 |  |  |
| CCCCOc1nccnn1 [Example 65, 3-n-butoxy-1,2,4-triazine] |  |  |  |  | CNS Activity [2, 4]: Antidepressant; responders at 50 mg/kg ([3]; 0.5 h, 30 Min.): 10% |
| CN(CCO)c1nncc(-c2ccccc2)n1 [Example 73] |  |  | 10 |  | CNS Activity ([2]; 300,100 mg/kg intraperitoneal): Hypnotic |
| CCC(=O)NNc1nncc(-c2ccc(Cl)cc2)n1 [Example 108, 3-propionylhydrazino-5-(4'-chlorophenyl)-1,2,4-triazine] |  |  |  |  | inhibition in vivo at 100 mg/kg ([1]; 100 mg/kg oral): 40%; responders at 25 mg/kg ([3]; 0.25 h, 15 Min.): 30%; responders at 25 mg/kg ([3]; 0.5 h, 30 Min.): 50%; responders at 25 mg/kg ([3]; 1 h, 60 Min): 50% |
